# From paper PMC6277767, “Broad and Region-Specific Impacts of the Synthetic Cannabinoid CP 55,940 in Adolescent and Adult Female Mouse Brains” (Frontiers in Molecular Neuroscience, 2018)
# System: CD1 female mouse brain lipidome
# Assay: Brain-region lipid levels (HPLC/MS/MS lipidomics) 2 h after single i.p. 3 mg/kg CP 55,940 vs vehicle
# Type: in vivo
# Design: N-arachidonoyl phenylalanine level, Mean / N-stearoyl tryptophan level, Mean / N-stearoyl proline level, Mean / N-stearoyl leucine level, Mean / N-stearoyl phenylalanine level, Mean / N-stearoyl serine level, Mean / N-stearoyl methionine level, Mean: unit: moles per gram
# Settings: thalamus
# Method: The Bloomington Institutional Animal Care and Use Committee of Indiana University reviewed and approved the animal procedures. Female mice from the CD1 strain were utilized to match our study examining THC’s effects on the brain lipidome ([Leishman et al., 2018]). Mice were given a single i.p. injection of either 3 mg/kg CP or 1:1:18 cremophor:ethanol:saline vehicle (please refer to the section “3 mg/kg CP Is Relevant for Synthetic Cannabinoid Abuse and Has Stronger Effects on the Female Mouse Brain Lipidome During Adolescence” for a justification of dose and use of female mice). Three different age groups were given injections: PND 35 and PND 50 adolescents, and adult mice (PND 113). At least eight mice in each age group received CP and at least eight received vehicle. Matching the THC study time course ([Leishman et al., 2018]), mice were sacrificed via rapid decapitation 2 h after injection. Brains were immediately removed and flash-frozen in liquid nitrogen, and then stored at -80°C until dissections were performed. Brains were dissected on an ice-cold dissection plate into the following regions: STR, HIPP, CER, THAL, CTX, HYP, MID, and STEM. These abbreviations for these brain areas will be used exclusively when discussing the results generated by these specific dissections. Each dissected area was immediately placed in liquid nitrogen and then stored at -80°C until used for lipid extraction.
# Tissue extracts were performed as previously described ([Bradshaw et al., 2006]; [Stuart et al., 2013]; [Raboune et al., 2014]; [Leishman et al., 2016a],[b], [2017], [2018]). First, samples were shock frozen in liquid nitrogen, weighed, and transferred to a centrifuge tube. The mass of the largest sample was multiplied by 50 to determine how many milliliters of HPLC-grade methanol (Fisher, Fair Lawn, NJ, United States) to add. Then, samples were spiked with 500 pmol deuterium-labeled NAGly (d8NAGly; Cayman Chemical, Ann Arbor, MI, United States). Samples were placed on ice in darkness for 2 h then individually homogenized and centrifuged at 19,000 × g for 20 min at 20°C. Supernatants were diluted with HPLC water (purified in house) to make a solution of 75% water, 25% supernatant. Lipids were partially purified on C18 solid phase extraction columns (Agilent, Palo Alto, CA, United States). A series of four elutions with 1.5 mL of 60%, 75%, 85%, and 100% methanol were collected ([Stuart et al., 2013]; [Leishman et al., 2016a],[b], [2018]).
# As previously described ([Bradshaw et al., 2006]; [Tan et al., 2006]; [Smoum et al., 2010]; [Stuart et al., 2013]; [Tortoriello et al., 2013]; [Raboune et al., 2014]; [Leishman et al., 2016a],[b], [2017], [2018]), samples were analyzed using an Applied Biosystems API 3000 triple quadrupole mass spectrometer with electrospray ionization (Foster City, CA, United States). Using an Agilent XDB-C18 reversed phase analytical column and optimized mobile phase gradients, 20 μL from each elution were chromatographed. Two Shimadzu 10ADvp pumps (Columbia, MD, United States) provided the pressure for gradient elution. Mobile phase A: 20% methanol, 80% water (v/v) and 1 mM ammonium acetate (Sigma, St. Louis, MO, United States). Mobile phase B: 100% methanol, 1 mM ammonium acetate. Every method run began with 0% mobile phase B, reached 100% mobile phase B flowing at 0.2 mL/min, and gradually returned to 0% mobile phase B.
# This screening library will be referred to as the lipidome when discussing data from this study. HPLC/MS/MS data were analyzed using Analyst software (Applied Biosystems) ([Bradshaw et al., 2006]; [Tan et al., 2006]; [Stuart et al., 2013]; [Tortoriello et al., 2013]; [Raboune et al., 2014]; [Leishman et al., 2016a],[b], [2017], [2018]). Chromatograms (Supplementary Figure 3) were generated by determining the retention time of analytes from the analytical column with a [M-1] or [M+1] parent peak and a fragmentation peak corresponding to the programmed values. […]
# [1] = PND 50 female mice, 3 mg/kg CP 55,940
# [2] = WT adult female mice, 3mg/kg CP 55,940
smiles,measurement,setting,value
"CCCCCCC(C)(C)c1ccc([C@@H]2C[C@H](O)CC[C@H]2CCCO)c(O)c1 [CP 55,940]",N-palmitoyl serine: Direction (relative to Veh),"PND 50, 3 mg/kg CP 55,940",↓
same,N-palmitoyl serine: Magnitude (x Veh level),"PND 50, 3 mg/kg CP 55,940",0.82 x Veh level
same,N-stearoyl serine: Direction (relative to Veh),"PND 50, 3 mg/kg CP 55,940",↓
same,N-stearoyl serine: Magnitude (x Veh level),"PND 50, 3 mg/kg CP 55,940",0.87 x Veh level
same,Oleic acid: Direction (relative to Veh),"PND 50, 3 mg/kg CP 55,940",↓
same,Oleic acid: Magnitude (x Veh level),"PND 50, 3 mg/kg CP 55,940",0.83 x Veh level
same,PGE2: Direction (relative to Veh),"PND 50, 3 mg/kg CP 55,940",↓
same,PGE2: Magnitude (x Veh level),"PND 50, 3 mg/kg CP 55,940",0.74 x Veh level
same,PGF2α: Direction (relative to Veh),"PND 50, 3 mg/kg CP 55,940",↓
same,PGF2α: Magnitude (x Veh level),"PND 50, 3 mg/kg CP 55,940",0.84 x Veh level
same,"2-arachidonoyl glycerol level, Mean",[1],2.19E-10
same,"2-linoleoyl glycerol level, Mean",[1],2.06E-10
same,"2-oleoyl glycerol level, Mean",[1],2.79E-09
same,"2-palmitoyl glycerol level, Mean",[1],1.02E-09
same,"6-ketoPGF1α level, Mean",[1],1.21E-11
same,"11-OH-THC level, Mean",[1],BDL
same,"11-nor-9-carboxyTHC level, Mean",[1],BDL
same,"Arachidonic acid level, Mean",[1],3.32E-10
same,"Cannabidiol level, Mean",[1],BDL
same,"Linoleic acid level, Mean",[1],2.28E-10
same,"N- stearoyl valine level, Mean",[1],1.2E-13
same,"N-arachidonoyl GABA level, Mean",[1],1.06E-11
same,"N-arachidonoyl dopamine level, Mean",[1],BDL
same,"N-arachidonoyl ethanolamine level, Mean",[1],3.67E-11
same,"N-arachidonoyl glycine level, Mean",[1],2.22E-12
same,"N-arachidonoyl phenylalanine level, Mean",[1],2.35E-13
same,"N-arachidonoyl proline level, Mean",[1],BDL
same,"N-arachidonoyl serine level, Mean",[1],9.47E-12
same,"N-arachidonoyl taurine level, Mean",[1],2.48E-11
same,"N-arachidonoyl tryptophan level, Mean",[1],BDL
same,"N-arachidonoyl tyrosine level, Mean",[1],3.46E-13
same,"N-docosahexaenoyl GABA level, Mean",[1],1.17E-12
same,"N-docosahexaenoyl ethanolamine level, Mean",[1],4.85E-11
same,"N-docosahexaenoyl glycine level, Mean",[1],2.76E-13
same,"N-docosahexaenoyl leucine level, Mean",[1],1.83E-13
same,"N-docosahexaenoyl proline level, Mean",[1],BDL
same,"N-docosahexaenoyl serine level, Mean",[1],1.8E-11
same,"N-docosahexaenoyl tryptophan level, Mean",[1],BDL
same,"N-docosahexaenoyl tyrosine level, Mean",[1],5.89E-13
same,"N-docosahexaenoyl valine level, Mean",[1],BDL
same,"N-linoleoyl GABA level, Mean",[1],6.3E-13
same,"N-linoleoyl ethanolamine level, Mean",[1],5.72E-11
same,"N-linoleoyl glycine level, Mean",[1],1.48E-13
same,"N-linoleoyl leucine level, Mean",[1],4.17E-14
same,"N-linoleoyl proline level, Mean",[1],BDL
same,"N-linoleoyl serine level, Mean",[1],6.59E-11
same,"N-linoleoyl tryptophan level, Mean",[1],BDL
same,"N-linoleoyl valine level, Mean",[1],BDL
same,"N-nervonoyl valine level, Mean",[1],BDL
same,"N-oleoyl GABA level, Mean",[1],4.02E-12
same,"N-oleoyl alanine level, Mean",[1],7.11E-13
same,"N-oleoyl dopamine level, Mean",[1],BDL
same,"N-oleoyl ethanolamine level, Mean",[1],9.26E-11
same,"N-oleoyl glycine level, Mean",[1],1.74E-12
same,"N-oleoyl leucine level, Mean",[1],5.99E-13
same,"N-oleoyl methionine level, Mean",[1],2.91E-13
same,"N-oleoyl phenylalanine level, Mean",[1],9.22E-13
same,"N-oleoyl proline level, Mean",[1],BDL
same,"N-oleoyl serine level, Mean",[1],1.27E-10
same,"N-oleoyl tryptophan level, Mean",[1],BDL
same,"N-oleoyl tyrosine level, Mean",[1],4.03E-13
same,"N-palmitoyl GABA level, Mean",[1],1.06E-11
same,"N-palmitoyl alanine level, Mean",[1],2.52E-12
same,"N-palmitoyl ethanolamine level, Mean",[1],7.34E-11
same,"N-palmitoyl glycine level, Mean",[1],9.61E-12
same,"N-palmitoyl leucine level, Mean",[1],1.53E-12
same,"N-palmitoyl methionine level, Mean",[1],1.27E-12
same,"N-palmitoyl phenylalanine level, Mean",[1],1.34E-12
same,"N-palmitoyl proline level, Mean",[1],BDL
same,"N-palmitoyl serine level, Mean",[1],2.63E-11
same,"N-palmitoyl tryptophan level, Mean",[1],BDL
same,"N-palmitoyl tyrosine level, Mean",[1],8.81E-13
same,"N-palmitoyl valine level, Mean",[1],1.92E-13
same,"N-stearoyl GABA level, Mean",[1],1.06E-11
same,"N-stearoyl alanine level, Mean",[1],5.6E-13
same,"N-stearoyl ethanolamine level, Mean",[1],3.31E-11
same,"N-stearoyl glycine level, Mean",[1],1.16E-12
same,"N-stearoyl leucine level, Mean",[1],1.04E-12
same,"N-stearoyl methionine level, Mean",[1],8.73E-13
same,"N-stearoyl phenylalanine level, Mean",[1],1.21E-12
same,"N-stearoyl proline level, Mean",[1],BDL
same,"N-stearoyl serine level, Mean",[1],4.06E-11
same,"N-stearoyl tryptophan level, Mean",[1],BDL
same,"N-stearoyl tyrosine level, Mean",[1],1.18E-13
same,"Oleic acid level, Mean",[1],3.18E-10
same,"PGE2 level, Mean",[1],8.74E-11
same,"THC level, Mean",[1],BDL
same,"2-arachidonoyl glycerol level, Mean",[2],3E-09
same,"2-linoleoyl glycerol level, Mean",[2],2.71E-10
same,"2-oleoyl glycerol level, Mean",[2],3.61E-09
same,"2-palmitoyl glycerol level, Mean",[2],8.84E-11
same,"6-ketoPGF1α level, Mean",[2],3.33E-11
same,"Arachidonic acid level, Mean",[2],9.32E-10
same,"Linoleic acid level, Mean",[2],4.92E-10
same,"N-arachidonoyl GABA level, Mean",[2],2.04E-11
same,"N-arachidonoyl alanine level, Mean",[2],9.44E-13
same,"N-arachidonoyl ethanolamine level, Mean",[2],1.69E-11
same,"N-arachidonoyl glycine level, Mean",[2],5.38E-13
same,"N-arachidonoyl phenylalanine level, Mean",[2],1.15E-13
same,"N-arachidonoyl taurine level, Mean",[2],5.3E-11
same,"N-arachidonoyl tyrosine level, Mean",[2],6.37E-13
same,"N-docosahexaenoyl GABA level, Mean",[2],9.36E-12
